Experimental data: patent US20220160686A1, “MACROCYCLIC AZOLOPYRIDINE DERIVATIVES AS EED AND PRC2 MODULATORS” (Fulcrum Therapeutics, Inc., priority 2019, published 2022)

Tests used:
EZH2/PRC2 complex = EZH2/PRC2 complex (Homo sapiens, UniProt O75530); test: Histone methyltransferase assay (radioisotope-based HotSpot); format: biochemical; settings: EZH2/PRC2 complex 10 nM, core histone substrate 0.05 mg/ml, 3H-SAM 1 μM; read-out: IC50, inhibitory effects on the HMT enzyme
Protocol: Effect of compounds of the present disclosure on EZH2/PRC2 complex methyltransferase functional activity was measured using the radioisotope-based HotSpot assay described by Horiuchi, K. Y., et al. Assay Drug Dev Technol. 11(4):227-36 (2013). Briefly, compounds were prepared in a 10-point 3-fold serial dilution in DMSO from a 10 mM stock in ECHO qualified plate using Assist Plus (Integra Biosciences) liquid handler. […] Nanoliter quantities of each compound's concentration series were transferred into the enzyme/substrate mix using (Echo 550, LabCyte Inc. Sunnyvale, Calif.) acoustic dispenser and pre-incubated for 20 min at room temperature. The methylation reaction was initiated by the addition of 1 μl of 5 μM S-Adenosyl-L-[methyl-^3H]methionine (^3H-SAM) and incubated at 30° C. for 1 h. The final concentration of the EZH2/PRC2 complex, core histone substrate and ^3H-SAM were 10 nM, 0.05 mg/ml, and 1 μM respectively. The % activity of test samples were calculated with reference to positive (no compound) and negative (no EZH2/PRC2) controls on the plate using Excel (Microsoft). The resulting values were exported to Prism (GraphPad software) to generate concentration response curves and IC50 values using the four-parameter logistic equation.

[1] = biological target: T1, biotinylated AVI-tagged EED (76-441) (Homo sapiens, UniProt O75530); test: EED binding SPR assay; settings: 1:1 binding model; read-out: KD, equilibrium dissociation constant as measured by surface plasmon resonance (SPR)
T1 construct: GST (N, cleaved yes); made in house; host or cells: E. coli BL21(DE3), co-expressed with pGro7
Procedure, shortened: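 Biotinylated AVI-EED(76-441) from E. coli was captured on Biotin CAPture chips (2200–2400 RU) in 10 mM HEPES pH 7.4, 150 mM NaCl, 0.05% Tween 20 and 2% DMSO. Compounds were run at 7 concentrations (3-fold dilutions) with 90 s association and 180 s dissociation, chip at 25 °C. Data were fitted to a 1:1 binding model.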

T1 sequence (O75530 76-441 limits assumed): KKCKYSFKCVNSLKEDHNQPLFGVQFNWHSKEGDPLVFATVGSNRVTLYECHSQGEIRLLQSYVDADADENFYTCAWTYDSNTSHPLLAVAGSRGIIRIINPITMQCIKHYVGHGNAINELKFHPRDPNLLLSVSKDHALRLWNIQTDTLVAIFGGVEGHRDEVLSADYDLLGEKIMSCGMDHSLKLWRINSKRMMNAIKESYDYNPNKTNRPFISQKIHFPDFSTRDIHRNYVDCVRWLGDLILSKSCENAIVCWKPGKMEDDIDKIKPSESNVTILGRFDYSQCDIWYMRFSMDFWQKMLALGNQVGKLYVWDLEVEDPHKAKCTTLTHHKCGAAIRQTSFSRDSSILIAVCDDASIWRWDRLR
EZH2/PRC2 complex, sequence (O75530 whole entry): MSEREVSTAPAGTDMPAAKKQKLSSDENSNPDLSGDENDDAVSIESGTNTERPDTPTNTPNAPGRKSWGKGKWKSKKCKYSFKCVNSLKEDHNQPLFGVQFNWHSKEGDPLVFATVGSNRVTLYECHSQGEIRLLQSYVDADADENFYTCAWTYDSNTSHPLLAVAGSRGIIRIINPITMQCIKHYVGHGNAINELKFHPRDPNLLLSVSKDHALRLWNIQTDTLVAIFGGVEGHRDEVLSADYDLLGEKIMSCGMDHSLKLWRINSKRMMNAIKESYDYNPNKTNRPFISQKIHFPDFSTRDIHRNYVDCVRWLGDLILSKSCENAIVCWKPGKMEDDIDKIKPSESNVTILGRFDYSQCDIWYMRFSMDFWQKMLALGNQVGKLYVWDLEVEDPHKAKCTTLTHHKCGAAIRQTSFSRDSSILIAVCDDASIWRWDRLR
EZH2/PRC2 complex, sequence (Q15910 whole entry partner): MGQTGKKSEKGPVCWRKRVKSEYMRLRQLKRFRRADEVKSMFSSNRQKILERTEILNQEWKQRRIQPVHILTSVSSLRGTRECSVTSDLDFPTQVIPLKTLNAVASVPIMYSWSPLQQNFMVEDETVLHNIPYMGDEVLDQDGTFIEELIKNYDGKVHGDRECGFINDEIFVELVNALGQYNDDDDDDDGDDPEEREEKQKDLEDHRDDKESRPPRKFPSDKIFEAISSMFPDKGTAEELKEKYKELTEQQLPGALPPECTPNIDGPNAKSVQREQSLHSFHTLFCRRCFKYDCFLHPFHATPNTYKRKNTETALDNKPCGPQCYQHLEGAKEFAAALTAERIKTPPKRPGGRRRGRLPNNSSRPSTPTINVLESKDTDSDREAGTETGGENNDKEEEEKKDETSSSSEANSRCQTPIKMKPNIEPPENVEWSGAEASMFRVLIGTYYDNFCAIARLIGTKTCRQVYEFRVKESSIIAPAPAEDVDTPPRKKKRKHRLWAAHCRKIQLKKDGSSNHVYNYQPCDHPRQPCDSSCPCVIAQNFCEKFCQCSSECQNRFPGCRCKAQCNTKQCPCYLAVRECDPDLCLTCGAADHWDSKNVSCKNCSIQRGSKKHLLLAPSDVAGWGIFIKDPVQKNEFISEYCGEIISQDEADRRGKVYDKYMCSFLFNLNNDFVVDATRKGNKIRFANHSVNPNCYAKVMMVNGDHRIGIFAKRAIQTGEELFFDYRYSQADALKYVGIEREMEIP
EZH2/PRC2 complex, sequence (Q15022 whole entry partner): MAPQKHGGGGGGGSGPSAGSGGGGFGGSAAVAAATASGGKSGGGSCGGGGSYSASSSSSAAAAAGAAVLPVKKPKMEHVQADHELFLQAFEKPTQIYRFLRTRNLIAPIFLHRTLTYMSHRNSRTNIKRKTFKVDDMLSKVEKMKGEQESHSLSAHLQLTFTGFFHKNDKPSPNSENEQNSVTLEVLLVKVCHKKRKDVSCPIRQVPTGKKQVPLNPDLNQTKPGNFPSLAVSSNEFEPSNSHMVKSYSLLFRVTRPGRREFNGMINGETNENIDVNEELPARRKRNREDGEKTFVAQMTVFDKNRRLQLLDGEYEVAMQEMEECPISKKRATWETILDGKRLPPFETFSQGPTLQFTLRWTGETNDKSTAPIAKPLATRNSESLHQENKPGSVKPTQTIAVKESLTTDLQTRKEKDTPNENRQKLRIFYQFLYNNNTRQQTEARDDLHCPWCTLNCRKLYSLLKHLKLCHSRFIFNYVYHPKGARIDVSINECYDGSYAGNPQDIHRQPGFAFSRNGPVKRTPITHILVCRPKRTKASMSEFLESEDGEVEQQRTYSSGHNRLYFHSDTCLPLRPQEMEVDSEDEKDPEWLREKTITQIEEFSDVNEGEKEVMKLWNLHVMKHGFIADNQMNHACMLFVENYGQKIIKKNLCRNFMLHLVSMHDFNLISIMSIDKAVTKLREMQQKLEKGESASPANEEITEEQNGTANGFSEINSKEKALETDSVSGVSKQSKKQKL

IC50 (EZH2/PRC2 complex) [µM] | Kd [1] [µM] | SMILES
< 0.025 | < 0.0025 | Cc1cn(-c2cc3c(n4cnnc24)NCc2c(F)ccc4c2[C@@H](CO4)CO3)cn1 [Compound 15, (S)-12-fluoro-4-(4-methyl-1H-imidazol-1-yl)-7a,8,13,14-tetrahydro-7H-[1,2,4]triazolo[4′,3′:1,6]pyrido[3,2-b]benzofuro[4,3-fg][1,4]oxazonine]
< 0.025 | < 0.0025 | Cc1ncc(-c2cc3c(n4cnnc24)NCc2c(F)ccc4c2[C@@H](CO4)CO3)c(C)n1 [Compound 13, (S)-4-(2,4-dimethylpyrimidin-5-yl)-12-fluoro-7a,8,13,14-tetrahydro-7H-[1,2,4]triazolo[4′,3′:1,6]pyrido[3,2-b]benzofuro[4,3-fg][1,4]oxazonine]
< 0.025 | < 0.0025 | Cn1nc(C(C)(C)C#N)cc1-c1cc2c(n3cnnc13)NCc1c(F)ccc3c1[C@@H](CO3)CO2 [Compound 169, (S)-2-(5-(12-fluoro-7a,8,13,14-tetrahydro-7H-[1,2,4]triazolo[4′,3′:1,6]pyrido[3,2-b]benzofuro[4,3-fg][1,4]oxazonin-4-yl)-1-methyl-1H-pyrazol-3-yl)-2-methylpropanenitrile]
< 0.025 | 0.0025 to 0.005 | Fc1ccc2c3c1CNc1c(cc(C4COC4)c4nncn14)OC[C@@H]3CO2 [Compound 12, (S)-12-fluoro-4-(oxetan-3-yl)-7a,8,13,14-tetrahydro-7H-[1,2,4]triazolo[4′,3′:1,6]pyrido[3,2-b]benzofuro[4,3-fg][1,4]oxazonine]
< 0.025 | < 0.0025 | CS(=O)(=O)c1ccc(-c2cc3c(n4cnnc24)NCc2c(F)ccc4c2C(CO4)CO3)cc1 (centres unmarked) [Example 36]
< 0.025 | < 0.0025 | Cn1nc(OC(F)F)cc1-c1cc2c(n3cnnc13)NCc1c(F)ccc3c1[C@@H](CO3)CO2 [Compound 167, (S)-4-(3-(difluoromethoxy)-1-methyl-1H-pyrazol-5-yl)-12-fluoro-7a,8,13,14-tetrahydro-7H-[1,2,4]triazolo[4′,3′:1,6]pyrido[3,2-b]benzofuro[4,3-fg][1,4]oxazonine]
< 0.025 | < 0.0025 | Cc1cc(C#N)ccc1-c1cc2c(n3cnnc13)NCc1c(F)ccc3c1[C@H](CO3)CO2 [Example 49]
> 0.5 | > 0.05 | Cc1ncccc1-c1cc2c(n3cnnc13)NCc1c(F)cccc1COC2 [Compound 6, 12-fluoro-4-(2-methylpyridin-3-yl)-6,8,13,14-tetrahydro-[1,2,4]triazolo[4′,3′:1,6]pyrido[3,2-c]benzo[g][1,5]oxazonine]
< 0.025 | < 0.0025 | Fc1cncnc1-c1cc2c(n3cnnc13)NCc1c(F)ccc3c1[C@@H](CO3)CO2 [Compound 164, (S)-12-fluoro-4-(5-fluoropyrimidin-4-yl)-7a,8,13,14-tetrahydro-7H-[1,2,4]triazolo[4′,3′:1,6]pyrido[3,2-b]benzofuro[4,3-fg][1,4]oxazonine]
0.025 to 0.05 | 0.01 to 0.05 | Cc1ncccc1-c1cc2c(n3cc(C(N)=O)nc13)NCc1c(F)ccc3c1[C@@H](CO3)CO2 [Compound 176, (S)-5-fluoro-12-(2-methylpyridin-3-yl)-6,7,15,15a-tetrahydro-1H-benzofuro[4,3-fg]imidazo[r,2′:1,6]pyrido[3,2-b][1,4]oxazonine-10-carboxamide]
0.1 to 0.5 | > 0.05 | c1cc2c3c(c1)OC[C@H]3COc1ccc3nncn3c1NC2 [Compound 11, (S)-7a,8,13,14-tetrahydro-7H-[1,2,4]triazolo[4′,3′:1,6]pyrido[3,2-b]benzofuro[4,3-fg][1,4]oxazonine]
0.025 to 0.05 | 0.005 to 0.01 | Cc1ncccc1-c1cc2c(n3cnnc13)NCc1c(F)cccc1CCO2 [Compound 5, 12-fluoro-4-(2-methylpyridin-3-yl)-7,8,13,14-tetrahydro-[1,2,4]triazolo[4′,3′:1,6]pyrido[3,2-b]benzo[f][1,4]oxazonine]
< 0.025 | < 0.0025 | Cn1nc(C(F)(F)F)cc1-c1cc2c(n3cnnc13)NCc1c(F)ccc3c1[C@H](CO3)CO2 [Example 115]
< 0.025 | 0.01 to 0.05 | Cn1cc(Cc2cc3c(n4cnnc24)NCc2cccc4c2[C@@H](CO4)CO3)cn1 [Compound 7, (S)-4-((1-methyl-1H-pyrazol-4-yl)methyl)-7a,8,13,14-tetrahydro-7H-[1,2,4]triazolo[4′,3′:1,6]pyrido[3,2-b]benzofuro[4,3-fg][1,4]oxazonine]
< 0.025 | 0.005 to 0.01 | Cn1cc(Cc2cc3c(n4cnnc24)NCc2c(F)ccc4c2[C@@H](CO4)CO3)cn1 [Compound 10, (S)-12-fluoro-4-((1-methyl-1H-pyrazol-4-yl)methyl)-7a,8,13,14-tetrahydro-7H-[1,2,4]triazolo[4′,3′:1,6]pyrido[3,2-b]benzofuro[4,3-fg][1,4]oxazonine]
< 0.025 | < 0.0025 | Cc1ncccc1-c1cc2c(n3cc(C#N)nc13)NCc1c(F)ccc3c1[C@@H](CO3)CO2 [Compound 186, (S)-5-fluoro-12-(2-methylpyridin-3-yl)-6,7,15,15a-tetrahydro-1H-benzofuro[4,3-fg]imidazo[1′,2′:1,6]pyrido[3,2-b][1,4]oxazonine-10-carbonitrile]
